# Test results as given in US7241784B2, “Carboxylic acid derivative and a pharmaceutical composition containing the derivative as active ingredient” (Ono Pharmaceutical Co., Ltd., priority 1998, dated 2007).
# What was measured:
# human PPARγ = biological target: T1, human PPARγ (Homo sapiens, UniProt P37231); test: Luciferase assay using human PPARγ (Gal4-PPARγ LBD chimeric receptor, CV-1 cells); assay type: cell-based; conditions: PPARγ agonistic activity, compound 10 μM, luciferase activity of troglitazone (10 μM) defined as 1.0, 42 hours
# T1 construct: expressed in transfected cells; host or cells: CV-1 cells
# T1 sequence (P37231 204-505): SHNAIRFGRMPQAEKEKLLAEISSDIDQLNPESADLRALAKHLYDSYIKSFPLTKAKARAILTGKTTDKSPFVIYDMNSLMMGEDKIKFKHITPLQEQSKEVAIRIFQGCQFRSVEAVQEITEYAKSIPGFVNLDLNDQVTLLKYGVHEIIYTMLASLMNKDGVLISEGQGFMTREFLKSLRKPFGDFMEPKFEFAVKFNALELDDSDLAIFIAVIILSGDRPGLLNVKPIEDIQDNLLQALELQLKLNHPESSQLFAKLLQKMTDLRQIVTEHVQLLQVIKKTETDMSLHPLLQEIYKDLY
# human PPARα = biological target: T2, human PPARα (Homo sapiens, UniProt Q07869); test: Luciferase assay using human PPARα (Gal4-PPARα LBD chimeric receptor, CV-1 cells); assay type: cell-based; conditions: PPARα agonistic activity, compound 10 μM, luciferase activity of carbacyclin (10 μM) defined as 1.0, 42 hours
# T2 construct: expressed in transfected cells; host or cells: CV-1 cells
# T2 sequence (Q07869 167-468): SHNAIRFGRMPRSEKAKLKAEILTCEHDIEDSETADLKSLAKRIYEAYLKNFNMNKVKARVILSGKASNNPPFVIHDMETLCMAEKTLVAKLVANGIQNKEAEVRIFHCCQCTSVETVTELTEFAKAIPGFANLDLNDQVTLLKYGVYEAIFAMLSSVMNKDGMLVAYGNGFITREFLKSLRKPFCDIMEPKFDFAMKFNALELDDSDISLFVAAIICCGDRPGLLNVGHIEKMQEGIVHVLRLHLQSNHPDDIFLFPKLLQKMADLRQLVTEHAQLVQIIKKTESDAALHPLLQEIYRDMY
# KKAy/Ta mice = test: Hypoglycemic and hypolipidemic effects in KKAy/Ta mice; assay type: in vivo; conditions: male KKAy/Ta mice, food mixture containing 0.03% (w/w) compound for two days, 5 mice per group; for TG level on Day 3: control 523 ± 144; for glycemic level on Day 3: control 638 ± 63
# Description: Hypoglycemic and Hypolipidemic Effects
# Male, 7-weeks old KKAy/Ta mice weighed from 35 to 40 g (five mice per group) were pre-breaded for approximately one week and acclimatized for three days on milled diet. On the first day of the experiment (Day 0), mice were divided into some groups according to weight, plasma glucose and triglyceride (TG) levels to minimize the differences among groups. From the next day for two days they were given compounds by food mixture containing 0.03% (w/w) of the compound of the present invention or by milled diet only. At 13:00 of the third day, blood samples were collected to measure glucose and TG levels. Additionally, there was no significant difference in the food intake between control group (milled diet only) and compounds-treated group (milled diet containing 0.03% compounds).
# SD rats = test: Hypocholesterolemic and hypolipidemic effects in SD rats given hypercholesterolemic food; assay type: in vivo; conditions: male SD rats, oral administration in 0.5% CMC, then hypercholesterolemic food, blood at 9:00 of the next day, 5 rats per group; for TC level: control 154 ± 8; for TG level: control 158 ± 19; for NEFA levle: control 537 ± 69
# Description: Hypocholesterolemic and Hypolipidemic Effects
# Male, six-weeks old SD rats (five rats per group) were left to take milled diet and water ad libitum and were acclimatized for 1 week.
# At 9:00 on the first day of the experiment (Day 0), blood sampling was done from tail vein. The rats were divided into some groups according to body weight, triglyceride (TG), non-esterified fatty acid (NEFA) and total cholesterol (TC) levels to minimize differences of the parameters among the groups. At 17:00 of the day, the compound of the present invention dissolved in 0.5% aqueous solution of carboxymethylcellulose (CMC) was orally administered, and thereafter, with hypercholesterolemic food (5.5% peanut oil, 1.5% cholesterol and 0.5% cholic acid were mixed with milled CRF-1 diet, Charles River Inc.) was given to the rats.
# At 9:00 of the next day, blood sampling was done from tail vein. The lipid levels in blood (TG, NEFA and TC levels) after administration of the compounds of the present invention were measured. There was no significant difference of the food intake between the control group (provided only 0.5% CMC) and the group treated with the compounds of the present invention.
Compound,Relative Activity to a positive control compound (troglitazone = 1) (human PPARγ),Relative Activity to a positive control compound (carbacyclin = 1) (human PPARα),TG level on Day 3 (KKAy/Ta mice) [mg/dL],glycemic level on Day 3 (KKAy/Ta mice) [mg/dL],TC level (SD rats) [mg/dL],TG level (SD rats) [mg/dL],NEFA levle (SD rats) [μEq/l]
"Cc1oc(-c2ccccc2)nc1CCOCCCCSCC(=O)O [Example 5 (8), 2-(4-(2-(5-methyl-2-phenyloxazol-4-yl)ethoxy)butylthio)acetic acid]",2.3,2.2,,,,,
"Cc1ccc(-c2nc(CCOCC#CCSCC(=O)O)c(C)o2)cc1 [Example 5 (10), 2-(4-(2-(5-methyl-2-(4-methylphenyl)oxazol-4-yl)ethoxy)-2-butynylthio)acetic acid]",2.7,1.5,111 ± 38,339 ± 74,88 ± 6,95 ± 17,334 ± 55
"Cc1oc(-c2ccccc2)nc1CCOCC#CCSCC(=O)O [Example 5 (2), 2-(4-(2-(5-methyl-2-phenyloxazol-4-yl)ethoxy)-2-butynylthio)acetic acid]",2.6,2.9,,,,,
"Cc1oc(-c2ccc3c(c2)OCO3)nc1CCOCC#CCSCC(=O)O [Example 5 (11), 2-(4-(2-(5-methyl-2-(1,3-dioxaindan-5-yl)oxazol-4-yl)ethoxy)-2-butynylthio)acetic acid]",2.3,1.7,140 ± 75,306 ± 72,91 ± 6,90 ± 14,227 ± 17
